In patent US20240360177A1, “PEPTIDES WITH ANTIMICROBIAL ACTIVITIES” (priority 2021, published 2024):
In brackets after ≈: the same amount, converted by molar mass. Starred links: 1 amine or outer side, 2 acyl side, 3 side chain; linkers in the order of their positions; H or OH if unused. Non-standard residues stand in square brackets, D forms with d. Residues, ends and D or L forms follow the SMILES beside them. Groups on a side chain read outwards from the residue. N(2-Aminoethyl)Gly = O=C(CN(CCN[*:3])[*:1])[*:2]; hLeu = CC(C)CC[C@H](N)C(=O)O; Aoc = NCCCCCCCC(=O)O; AEA = NCCOCC(=O)O; Ava = NCCCCC(=O)O; βAla = NCCC(=O)O

Columns and labels:
Conditions in all cases: 24 h
C. dubliniensis = tested on: C. dubliniensis
C. glabrata = tested on: C. glabrata
C. tropicalis = tested on: C. tropicalis
C. parapsilosis = tested on: C. parapsilosis
C. albicans = tested on: C. albicans

| SMILES | MIC C. dubliniensis (C. dubliniensis) [µg/mL] | MIC C. glabrata (C. glabrata) [µg/mL] | MIC C. tropicalis (C. tropicalis) [µg/mL] | MIC C. parapsilosis (C. parapsilosis) [µg/mL] | MIC C. albicans (C. albicans) [µg/mL] |
| --- | --- | --- | --- | --- | --- |
| N=C(N)NCCC[C@@H](N)C(=O)N[C@@H](CCCNC(=N)N)C(=O)N[C@H](CCCNC(=N)N)C(=O)NCCCCC(=O)N[C@H](CCCNC(=N)N)C(=O)N[C@@H](CCCNC(=N)N)C(=O)N[C@H](CCCNC(=N)N)C(=O)NCCOCC(=O)N[C@H](CCCNC(=N)N)C(=O)N[C@@H](CCCNC(=N)N)C(=O)N[C@H](CCCNC(=N)N)C(=O)N[C@@H](CCCNC(=N)N)C(=O)NCCCCC(=O)N[C@H](CCCNC(=N)N)C(=O)N[C@@H](CCCNC(=N)N)C(=O)N[C@H](CCCNC(=N)N)C(=O)N[C@@H](CCCNC(=N)N)C(N)=O [SEQ ID NO: 48, rRr-(Ava)-rRr-(Aea)-rRrR-(Ava)-rRrR-NH2] (H-[dR]R[dR][Ava][dR]R[dR][AEA][dR]R[dR]R[Ava][dR]R[dR]R-NH2) | 0.5 (≈ 0.2 µM) | 1 (≈ 0.4 µM) | 0.5 (≈ 0.2 µM) | 0.5 (≈ 0.2 µM) | 0.5 (≈ 0.2 µM) |
| CC(C)CC[C@H](NC(=O)[C@@H](CCCNC(=N)N)NC(=O)[C@H](CCCNC(=N)N)NC(=O)[C@@H](CCCNC(=N)N)NC(=O)[C@@H]1CCCN1C(=O)[C@H](CCCNC(=N)N)NC(=O)[C@@H](CCCNC(=N)N)NC(=O)[C@H](CCCNC(=N)N)NC(=O)[C@@H](CCCNC(=N)N)NC(=O)[C@@H]1CCCN1C(=O)[C@@H](CCCNC(=N)N)NC(=O)[C@H](CCCNC(=N)N)NC(=O)[C@@H](CCCNC(=N)N)NC(=O)[C@@H]1CCCN1C(=O)[C@@H](CCCNC(=N)N)NC(=O)[C@H](CCCNC(=N)N)NC(=O)[C@@H](N)CCC(C)C)C(N)=O [SEQ ID NO: 95, (hLeu)Rr-P-rRr-P-rRrR-P-rRr(hLeu)-NH2] (H-[hLeu]R[dR]P[dR]R[dR]P[dR]R[dR]RP[dR]R[dR][hLeu]-NH2) | 0.5 (≈ 0.205 µM) | 0.5 (≈ 0.205 µM) | 1 (≈ 0.41 µM) | 1 (≈ 0.41 µM) | 1 (≈ 0.41 µM) |
| N=C(N)NCCC[C@@H](N)C(=O)N[C@@H](CCCNC(=N)N)C(=O)N[C@H](CCCNC(=N)N)C(=O)NCCCCCCCC(=O)N[C@H](CCCNC(=N)N)C(=O)N[C@@H](CCCNC(=N)N)C(=O)N[C@H](CCCNC(=N)N)C(=O)NCCCCCCCC(=O)N[C@H](CCCNC(=N)N)C(=O)N[C@@H](CCCNC(=N)N)C(=O)N[C@H](CCCNC(=N)N)C(=O)N[C@@H](CCCNC(=N)N)C(=O)NCCCCCCCC(=O)N[C@H](CCCNC(=N)N)C(=O)N[C@@H](CCCNC(=N)N)C(=O)N[C@H](CCCNC(=N)N)C(=O)N[C@@H](CCCNC(=N)N)C(=O)O [SEQ ID NO: 30, rRr-(Aoa)-rRr-(Aoa)-rRrR-(Aoa)-rRrR] (H-[dR]R[dR][Aoc][dR]R[dR][Aoc][dR]R[dR]R[Aoc][dR]R[dR]R-OH) | 0.5 (≈ 0.19 µM) | 1 (≈ 0.38 µM) | 1 (≈ 0.38 µM) | 0.5 (≈ 0.19 µM) | 1 (≈ 0.38 µM) |

Further lines, results first:

| MIC C. dubliniensis (C. dubliniensis) [µg/mL] | MIC C. glabrata (C. glabrata) [µg/mL] | MIC C. tropicalis (C. tropicalis) [µg/mL] | MIC C. parapsilosis (C. parapsilosis) [µg/mL] | MIC C. albicans (C. albicans) [µg/mL] | SMILES |
| --- | --- | --- | --- | --- | --- |
| 0.5 (≈ 0.207 µM) | >32 | 1 (≈ 0.414 µM) | 0.5 (≈ 0.207 µM) | 0.5 (≈ 0.207 µM) | N=C(N)NCCC[C@@H](N)C(=O)N[C@@H](CCCNC(=N)N)C(=O)N[C@H](CCCNC(=N)N)C(=O)NCCC(=O)N[C@H](CCCNC(=N)N)C(=O)N[C@@H](CCCNC(=N)N)C(=O)N[C@H](CCCNC(=N)N)C(=O)NCCC(=O)N[C@H](CCCNC(=N)N)C(=O)N[C@@H](CCCNC(=N)N)C(=O)N[C@H](CCCNC(=N)N)C(=O)N[C@@H](CCCNC(=N)N)C(=O)NCCC(=O)N[C@@H](CCCNC(=N)N)C(=O)N[C@@H](CCCNC(=N)N)C(=O)N[C@@H](CCCNC(=N)N)C(=O)N[C@@H](CCCNC(=N)N)C(N)=O [SEQ ID NO: 12, rRr-(Apr)-rRr-(Apr)-rRrR-(Apr)-RRRR-NH2] (H-[dR]R[dR][βAla][dR]R[dR][βAla][dR]R[dR]R[βAla]RRRR-NH2) |
| 0.5 (≈ 0.2 µM) | 2 (≈ 0.799 µM) | 1 (≈ 0.4 µM) | 1 (≈ 0.4 µM) | 1 (≈ 0.4 µM) | N=C(N)NCCC[C@@H](N)C(=O)N[C@@H](CCCNC(=N)N)C(=O)N[C@H](CCCNC(=N)N)C(=O)NCCNCC(=O)N[C@H](CCCNC(=N)N)C(=O)N[C@@H](CCCNC(=N)N)C(=O)N[C@H](CCCNC(=N)N)C(=O)NCCCCC(=O)N[C@H](CCCNC(=N)N)C(=O)N[C@@H](CCCNC(=N)N)C(=O)N[C@H](CCCNC(=N)N)C(=O)N[C@@H](CCCNC(=N)N)C(=O)NCCCCC(=O)N[C@H](CCCNC(=N)N)C(=O)N[C@@H](CCCNC(=N)N)C(=O)N[C@H](CCCNC(=N)N)C(=O)N[C@@H](CCCNC(=N)N)C(N)=O [SEQ ID NO: 41, rRr-(Aeg)-rRr-(Ava)-rRrR-(Ava)-rRrR-NH2] (H-[N(2-Aminoethyl)Gly]([dR-Arg-dR])[dR]R[dR][Ava][dR]R[dR]R[Ava][dR]R[dR]R-NH2) |
| 0.5 (≈ 0.207 µM) | 2 (≈ 0.828 µM) | 0.5 (≈ 0.207 µM) | 0.5 (≈ 0.207 µM) | 0.5 (≈ 0.207 µM) | N=C(N)NCCC[C@H](NC(=O)[C@@H](CCCNC(=N)N)NC(=O)[C@H](CCCNC(=N)N)NC(=O)[C@@H](CCCNC(=N)N)NC(=O)CCNC(=O)[C@H](CCCNC(=N)N)NC(=O)[C@@H](CCCNC(=N)N)NC(=O)[C@H](CCCNC(=N)N)NC(=O)[C@@H](CCCNC(=N)N)NC(=O)CCNC(=O)[C@@H](CCCNC(=N)N)NC(=O)[C@H](CCCNC(=N)N)NC(=O)[C@@H](CCCNC(=N)N)NC(=O)CCNC(=O)[C@H](CCCNC(=N)N)NC(=O)[C@H](CCCNC(=N)N)NC(=O)[C@@H](N)CCCNC(=N)N)C(N)=O [SEQ ID NO: 9, RRR-(Apr)-rRr-(Apr)-rRrR-(Apr)-rRrR-NH2] (H-RRR[βAla][dR]R[dR][βAla][dR]R[dR]R[βAla][dR]R[dR]R-NH2) |
| 0.5 (≈ 0.207 µM) | >32 | 2 (≈ 0.828 µM) | 0.5 (≈ 0.207 µM) | 1 (≈ 0.414 µM) | N=C(N)NCCC[C@@H](N)C(=O)N[C@@H](CCCNC(=N)N)C(=O)N[C@H](CCCNC(=N)N)C(=O)NCCC(=O)N[C@H](CCCNC(=N)N)C(=O)N[C@@H](CCCNC(=N)N)C(=O)N[C@H](CCCNC(=N)N)C(=O)NCCC(=O)N[C@@H](CCCNC(=N)N)C(=O)N[C@@H](CCCNC(=N)N)C(=O)N[C@@H](CCCNC(=N)N)C(=O)N[C@@H](CCCNC(=N)N)C(=O)NCCC(=O)N[C@H](CCCNC(=N)N)C(=O)N[C@@H](CCCNC(=N)N)C(=O)N[C@H](CCCNC(=N)N)C(=O)N[C@@H](CCCNC(=N)N)C(N)=O [SEQ ID NO: 11, rRr-(Apr)-rRr-(Apr)-RRRR-(Apr)-rRrR-NH2] (H-[dR]R[dR][βAla][dR]R[dR][βAla]RRRR[βAla][dR]R[dR]R-NH2) |
| 0.5 (≈ 0.2 µM) | 1 (≈ 0.4 µM) | 0.5 (≈ 0.2 µM) | 0.5 (≈ 0.2 µM) | 1 (≈ 0.4 µM) | N=C(N)NCCC[C@@H](N)C(=O)N[C@@H](CCCNC(=N)N)C(=O)N[C@H](CCCNC(=N)N)C(=O)NCCCCC(=O)N[C@H](CCCNC(=N)N)C(=O)N[C@@H](CCCNC(=N)N)C(=O)N[C@H](CCCNC(=N)N)C(=O)NCCCCC(=O)N[C@H](CCCNC(=N)N)C(=O)N[C@@H](CCCNC(=N)N)C(=O)N[C@H](CCCNC(=N)N)C(=O)N[C@@H](CCCNC(=N)N)C(=O)NCCOCC(=O)N[C@H](CCCNC(=N)N)C(=O)N[C@@H](CCCNC(=N)N)C(=O)N[C@H](CCCNC(=N)N)C(=O)N[C@@H](CCCNC(=N)N)C(N)=O [SEQ ID NO: 49, rRr-(Ava)-rRr-(Ava)-rRrR-(Aea)-rRrR-NH2] (H-[dR]R[dR][Ava][dR]R[dR][Ava][dR]R[dR]R[AEA][dR]R[dR]R-NH2) |
